Columns and labels:
[1] = system: human T-lymphoblastoid cell lines; conditions: cited from earlier work
B cell subtypes = conditions: 0.1-1.0 μg/ml for 48 hr, then 5 to 10 days SAC/rIL-2; data not shown
Method: B lymphocytes are incubated with drug (0.1-1.0 μg/ml) for 48 hr, followed by 5 to 10 days culture with SAC/rIL-2. The supernatant is then assayed at 5 and 10 days for IgM, IgG, and IgM-RF. Analyze the cells by flowcytometry at day 5 for CD20, CD20/CD5, CD5/sIgM, CD5/IgG, CD20/5/sIgM, and CD20/5 sIgG.

T lymphocytes = assay: T lymphocyte proliferative response to mitogen after 18 hr drug pretreatment (3H-thymidine); type: cell-based, human; conditions: 18 hr pretreatment; for % Suppression: T lymphocytes
Method: (§1) In FIG. 1, freshly isolated PBMC were enriched for T and B lymphocytes using Nylon Wool (see Materials and Methods, Example A). The enriched lymphocyte subpopulations were then incubated for 18 hrs at 37° C. with various concentrations of drug. At the end of the pretreatment period, the cell samples were washed, adjusted to 2×10^5 viable cells/ml, and cultured at 1×10^4/well in flat (B cells) or round (T cells) bottomed 96 well microtiter plates in […]. The T cells were incubated for 3 days with PHA-P ([…]) or Con A (5 μg/ml) and the B cells were cultured for 6 days with either PWM (2 μg/ml) or SAC ({fraction (1/60,000)}). 1 μCi of ^3H-thymidine was added per well during the last 18 hr of culture. The wells were then harvested onto glass fiber filters, and counted in 7 ml of Cytoscint (ICN) on the LKB 1219 Rackbeta scintillation counter. The results are expressed as the mean cpm of triplicate wells.
(§2) Peripheral blood mononuclear cells obtained from normal donors as packed leukocyte preparations were enriched for T and B lymphocytes and pretreated with drug for 18 hrs prior to mitogen stimulation.
(§3) Peripheral blood mononuclear cells enriched for either T or B lymphocytes were incubated for 18 hrs in complete S-10 medium at 37° C. in 12×75 mm culture tubes at 5×10^5 cells/ml. The cells were then washed in S-10 and cultured in triplicate for either 3 (T lymphocytes) or 6 (B lymphocytes) days at 2.5×10^4/well in round bottom 96-well microtiter plates in S-10 medium at 37° C. and a 5% CO2 humidified atmosphere. The wells were pulsed with 1 μCi 3H-thymidine for the last 18 hr of culture, harvested onto glass fiber filters, and counted with 7 ml Cytoscint with a LKB Rackbeta scintillation counter. The results are reported as “percent Suppression”:
(§4) % Suppression={1−(mean cpm exp./mean cpm stim control)}×100

[2] = system: collagen-induced arthritis; conditions: 1 and 10 mg/kg/day injected days 0-10 or days 10-20
Method: The study involves two treatment schedules (47). In Schedule I, FLP is injected on a daily basis on days 0-10 at doses of 1 and 10 mg/kg/day. In Schedule II, FLP is injected at days 10-20 at 1 and 10 mg/kg/day. […] Clinical, histological, EIA, and flowcytometry are employed to follow the progress of the disease.

B lymphocytes [3] = conditions: SAC + rIL-2, drug present 0-72 hr, 72-144 hr or continuously; results not shown
Method: The B lymphocytes are cultured with SAC +rIL-2 under the following conditions:
1. 0 to 72 hr + drug (0.1-0.5 […]), wash, continue culture for additional 72 hr
2. 0 to 72 hr, wash, add drug for additional 72 hr culture
3. No drug for 6 days (wash at 3 days)
4. Drug in continuous culture for 6 days
At the end of the culture period, the supernatants are assayed for IgM, IgG, and IgM-RF.

[4] = B-CLL patients; cited from earlier work
B lymphocytes [5] = assay: B lymphocyte proliferative response to mitogen after 18 hr drug pretreatment (3H-thymidine); type: cell-based, human; conditions: 18 hr pretreatment; for % Suppression: B lymphocytes
Method: as §1, §2, §3, §4

[6] = system: CD20 positive B lymphocytes; conditions: 48 hr culture with and without PWM, dose range 0.1-5.0 μg/ml, FIG. 3
Method: In FIG. 3, freshly isolated PBMC enriched for CD20 positive B lymphocytes (50% CD19, 45% CD20, 10% CD20/CD5 and 30% CD3/CD5) were cultured over 48 hr with various concentrations of FLP with and without PWM (5 μg/ml). The cells were washed once in C-BSS, and resuspended in 0.5 ml C-BCC with 5 μl of PI. Percent viable CD20 positive cells were determined by analysis on a FACScan using the LYSIS II software. Results are expressed as percent of total gated viable cells.
For viability determination of unfixed samples, 5 μl of a 500 mg/ml stock—solution of propidium iodide (PI) was added to the samples (0.5 ml)—immediately before acquisition.
A dose range of drug between 0.1-5.0 μg/ml was performed on PBMC enriched for B lymphocytes cultured for 48 hr with and without the mitogen PWM (FIG. 3). At the end of the culture period, the cells were washed, stained, and analyzed by flowcytometry for viable CD20 positive B lymphocytes.

Structure (SMILES): Nc1nc(Cl)nc2c1ncn2[C@H]1C[C@H](O)[C@@H](CO)O1 [2CDA, 2-chlorodeoxyadenosine]
- levels giving growth inhibition [1]: nanomolar levels

Structure (SMILES): Nc1nc(F)nc2c1ncn2[C@@H]1O[C@H](COP(=O)(O)O)[C@@H](O)[C@@H]1O [FLP, fludarabine-5′-monophosphate]
- sensitivity of B cell subtypes to drug (B cell subtypes): CD5 positive B cells are found to be more sensitive
- suppression of T lymphocyte's ability to respond to mitogen (T lymphocytes; FIG. 1A): suppress
- % Suppression (T lymphocytes; CON A (5 μg/ml), BC5, 5 μg/ml of drug): 29%
- % Suppression (T lymphocytes; CON A (5 μg/ml), BC6, 1 μg/ml of drug): 4%
- % Suppression (T lymphocytes; CON A (5 μg/ml), BC6, 5 μg/ml of drug): 29%
- % Suppression (T lymphocytes; CON A (5 μg/ml), BC7, 1 μg/ml of drug): 16%
- % Suppression (T lymphocytes; CON A (5 μg/ml), BC7, 5 μg/ml of drug): 40%
- % Suppression (T lymphocytes; CON A (5 μg/ml), leukocyte preparation BC5, 1 μg/ml of drug): 6%
- % Suppression (T lymphocytes; PHA-P (5 μg/ml), BC5, 1 μg/ml of drug): 24%
- % Suppression (T lymphocytes; PHA-P (5 μg/ml), BC5, 5 μg/ml of drug): 32%
- % Suppression (T lymphocytes; PHA-P (5 μg/ml), BC6, 1 μg/ml of drug): 0%
- % Suppression (T lymphocytes; PHA-P (5 μg/ml), BC6, 5 μg/ml of drug): 15%
- % Suppression (T lymphocytes; PHA-P (5 μg/ml), BC7, 1 μg/ml of drug): 25%
- % Suppression (T lymphocytes; PHA-P (5 μg/ml), BC7, 5 μg/ml of drug): 50%
- activity in arthritis model [2]: active following onset of disease
- part of the life cycle on which the drug has its primary effect (B lymphocytes [3]): early stage B lymphocyte proliferation/differentiation
- peak concentration of F-ara-ATP in the lymphocytes relative to the serum peak [4]: 10 fold
- suppression of B lymphocyte's ability to respond to mitogen (B lymphocytes [5]; FIG. 1B): suppress
- % Suppression (B lymphocytes [5]; PWM (1 μg/ml), BC5, 1 μg/ml of drug): 59%
- % Suppression (B lymphocytes [5]; PWM (1 μg/ml), BC5, 5 μg/ml of drug): 47%
- % Suppression (B lymphocytes [5]; PWM (1 μg/ml), BC6, 1 μg/ml of drug): 11%
- % Suppression (B lymphocytes [5]; PWM (1 μg/ml), BC6, 5 μg/ml of drug): 40%
- % Suppression (B lymphocytes [5]; PWM (1 μg/ml), BC7, 1 μg/ml of drug): 16%
- % Suppression (B lymphocytes [5]; PWM (1 μg/ml), BC7, 5 μg/ml of drug): 65%
- % Suppression (B lymphocytes [5]; SAC I (1/60,000), BC5, 1 μg/ml of drug): 14%
- % Suppression (B lymphocytes [5]; SAC I (1/60,000), BC5, 5 μg/ml of drug): 5%
- % Suppression (B lymphocytes [5]; SAC I (1/60,000), BC6, 1 μg/ml of drug): 0%
- % Suppression (B lymphocytes [5]; SAC I (1/60,000), BC6, 5 μg/ml of drug): 49%
- % Suppression (B lymphocytes [5]; SAC I (1/60,000), BC7, 1 μg/ml of drug): 55%
- % Suppression (B lymphocytes [5]; SAC I (1/60,000), BC7, 5 μg/ml of drug): 73%
- concentration at which effect on viable CD20 positive B lymphocytes becomes evident [6]: 0.5 µg/mL

Reference: patent US6337333B1, “Method of treating autoimmune disease with fludarabine-5′-monophosphate” (priority 1992, dated 2002)
